Where “and” joins values, the source holds several entries; their conditions need not be identical. Equal entries are not always repeated.

In assay [1] the test system is WT mice subjected to LAD ligation. The experiment in a line: Myocardial infarction by LAD coronary artery ligation after 14-day peptide infusion, infarct size by TTC. The format is in vivo, mouse. As to conditions: 4 days post-MI, mean±SE. The text has this:
After 2 weeks of continuous peptide infusion, animals were re-anesthesized with i.p ketamine/xylazine and underwent permanent ligation of the proximal left anterior descending (LAD) coronary artery to generate an experimental myocardial infarction (MI), as previously described (Ohta et al. 2004), with the surgeon blinded to treatment groups. At day 4 post-MI, animals were sacrificed and hearts excised for measurement of infarct size (FIG. 1B). This timepoint allows accurate measurement of infarct area prior to onset of cardiac rupture events (Noyan-Ashraf et al. 2005)
Freshly excised hearts were washed twice in cold PBS to remove excess blood, and cut into 2 mm sections perpendicular to the long axis. The sections were incubated at 37° C. in 2% 2,3,5-triphenyltetrazolium chloride (TTC) for 15 min, after which they were washed with PBS and fixed in 4% paraformaldehyde for 1 h before image acquisition using a digital scanner. Image J software (NIH, USA) was used to measure infarct area (TTC unstained white area) and total left ventricle (LV) area. Measurements were performed by two independent investigators blinded to treatment groups, and percent infarct size was calculated as the average of both measurements (infarct area/total LV area×100%).

Assay [2] relates to isolated WT mice hearts. The experiment in a line: Ex vivo I/R injury, LVDP in presence of soluble AC inhibitor KH7 or transmembrane AC inhibitor Ddox.
Protocol: Male, 10-12 week old, C57BI/6 mice were anesthesized with i.p ketamine (100 mg/kg)/xylazine (10 mg/kg)/heparin (1000 IU/kg), and the heart excised quickly, cannulated through the aorta, and perfused retrogradely with Kreb's Heinslet buffer in a Langendorff apparatus as previously described (Ban et al. 2008). […] A small plastic balloon connected to a pressure transducer was inflated inside the LV to measure LV end systolic (LVESP) and end diastolic pressure (LVEDP) obtained from computer analysis (AcqKnowledge 3.7.1. Biopack System, Goleta, Calif.). LVEDP was maintained at 4-8 mm Hg throughout the experiment. After 20 min of equilibration to allow the balloon to adjust inside the LV, hearts were perfused with buffer for 20 min, followed by 20 min perfusion with peptide of interest (FIG. 1a). Global ischemia was then generated by clamping inflow to the heart for 30 min, after which reperfusion was reinstated for 40 min. In the untreated control group, hearts were perfused for a total of 40 min prior to ischemia. LV developed pressure (LVDP) was calculated by subtracting LVEDP from LVESP. Functional recovery of LV function was calculated as LVDP at the end of reperfusion as a percentage of LVDP prior to ischemia.
Assay [3] has as its system mouse model of ischemic stroke. The experiment in a line: Mouse model of ischemic stroke after 28 days cerebral ventricle infusion.
Protocol: Peptides corresponding to the C-terminal domain of GLP-1 as described herein including GLP-1(28-36)^amide are tested in a mouse model of ischemic stroke. GLP-1(28-36)^amide is infused via Alzet® osmotic mini pumps brain infusion kits, specialized for targeted infusion into cerebral ventricles. After 28 days of GLP-1(28-36)^amide infusion, stroke is generated, after which brain infarct sizes are determined by TTC staining.
Protein lysates from brain tissue are extracted and the expression of survival kinases is probed by Western blots.
In assay [4] the test system is primary ventricular cardiomyoctyes isolated from neonatal WT mice. The experiment in a line: cAMP assay in neonatal mouse ventricular myocytes. The format is cell-based. The conditions noted are these: 30 nM, 10 min, IBMX 250 uM pretreatment, vs PBS or scrambled peptide. On the procedure:
(§1) Neonatal mouse ventricular myocytes (FIG. 9A) and atrial HL-1 myocyte cell lines (FIG. 9B) were pretreated with 250 uM IBMX for 30 min followed by treatment with GLP-1(28-36) and SCRAM(28-36) (30 nM each) or IPE and Forsk (10 uM each) or bicarbonate (25 mM) for 10 min. Cells were then lysed for measurement of cytoplasmic cAMP levels. Data represent mean±SE (n=3; triplicate wells for each replicate). After 24 h serum-deprivation, cells were pre-treated with the phosphodiesterase inhibitor IBMX (250 uM) for 30 min, after which the peptide of interest and/or vehicle PBS was added to the media to a final concentration of 30 nM for GLP-1 peptides and Exendin-4, and 10 uM for Isoproterenol and Forskolin. After 10 min drug treatment, cells were lysed and total intracellular cAMP release was measured using an enzymatic immunoassay kit (Cayman Chemicals, Mich.) as per manufacturer's protocol.
For orientation: cAMP levels reflect the balance of adenylyl cyclase and phosphodiesterase activity.

The subject of assay [5] is primary human coronary artery smooth muscle cells (hCSMCs). The experiment in a line: cAMP assay (enzymatic immunoassay) in hCSMCs. The format is cell-based. On the procedure: After 24 h serum-deprivation, cells were pre-treated with the phosphodiesterase inhibitor IBMX (250 uM) for 30 min, after which the peptide of interest and/or vehicle PBS was added to the media to a final concentration of 30 nM for GLP-1 peptides and Exendin-4, and 10 uM for Isoproterenol and Forskolin. After 10 min drug treatment, cells were lysed and total intracellular cAMP release was measured using an enzymatic immunoassay kit (Cayman Chemicals, Mich.) as per manufacturer's protocol.

For assay [6], the system named is Akt, Erk1/2, CREB and eNOS. The experiment in a line: Western blots of heart lysates from pre-treated mice. The conditions noted are these: organs collected on day 18, pre-treated hearts. The format is in vivo, mouse. The text has this: Organs were collected on day 18 as shown in the experimental model set out in FIG. 1B and Western blots of heart lysates were processed.

Assay [7] concerns isolated perfused hearts of WT mice. The experiment in a line: LDH release in coronary effluents of isolated perfused hearts undergoing I/R injury. As to conditions: pretreatment 6 nmol/L, vs untreated control. The arrangement: species or system mouse. As for the experimental part:
To further ascertain the protective actions of GLP-1(28-36)^amide, LDH release was measured in coronary effluents from the isolated perfused hearts as an indicator of cellular necrosis and death. […] Pretreatment with the GLP-1(28-36)^amide peptide therefore helps prevent cell death following an ischemic event and is useful for the treatment or prevention of ischemic tissue injury and ischemic heart disease.

For assay [8], the system named is HL-1 cells. The experiment in a line: cAMP assay in HL-1 atrial myocyte cell line. The format is cell-based, mouse. The conditions noted are these: HL-1 atrial cardiomyocyte cell line, 30 nM, 10 min, IBMX 250 uM pretreatment. On the procedure:
as §1

[9] abbreviates: 14-day pre-infusion 18.5 pmol/kg/min.
The mark [10] stands for this setting: with sAC inhibitor KH7 (2.4 uM).
The mark [11] stands for this setting: with tmAC inhibitor Ddox (2,5 dideoxyadenosine, 12 uM).
Where [12] appears, read: 14-day pre-infusion 3.5 pmol/kg/min.

As to H-AGKFWRILV-NH2 [SCRAM(28-36)^amide], the “% LV infarct size” value in assay [1] (setting [9]) was 32.4±1.8%. Also, the “LVDP at the end of reperfusion” value in assay [2] (setting [10]) worked out at 36.4±5.2 mmHg; in assay [2] (setting [11]), 37.6±5.3 mmHg.
For “H-HAEGTFTSDVSSYLEGQAAKEFIAWLVKGR-NH2 [GLP-1(7-36)^amide]”, the “% LV infarct size” value in assay [1] (setting [12]) is 23.0±1.9% and 23.0%. The “LVDP at the end of reperfusion” value was 73.1±5.3 mmHg in assay [2] (setting [10]) and 27.1±5.3 mmHg in assay [2] (setting [11]).
Consider H-FIAWLVKGR-NH2 [GLP-1(28-36)^amide], for which the “% LV infarct size” value in assay [1] (setting [9]) was 24.9±2.6% and 24.9±2.4%. In addition, in assay [3] (28 days infusion into cerebral ventricles before stroke), the “brain infarct size (TTC staining)” value is given as “smaller infarct sizes”. For the same substance, the “expression of survival kinases in brain tissue (Western blot)” value in assay [3] (mouse, in vivo) is “upregulation of survival kinases”. For the same substance, the cAMP response entry in assay [4] is “no cAMP response was detected”. The “intracellular cAMP, dose dependence” value in assay [5] is recorded as “dose-dependent increases in intracellular cAMP”. For the same substance, in assay [5] (Ddox 25 uM), the “cAMP release in presence of tmAC inhibitor Ddox” value is recorded as “did not prevent the increase in cAMP”. Further, in assay [5] (KH7 25 uM), the “cAMP release in presence of sAC inhibitor KH7” value is recorded as “abolished”. Besides, in assay [5] (without AC inhibitor), the “increase in cAMP release” value was 2 fold. The “activation of Akt, Erk1/2, CREB and eNOS (Western blot of heart lysates)” value in assay [6] was “enhanced activation of Akt, Erk1/2, CREB and eNOS”. The “LDH release in coronary effluent” value in assay [7] is recorded as “significantly lower concentration of LDH”. Also, the “intracellular cAMP release” value in assay [8] is “no intracellular cAMP release”. Moreover, the “LVDP at the end of reperfusion” value in assay [2] (setting [10]) is recorded as 25.2±1.7 mmHg; in assay [2] (setting [11]), 67.6±5.8 mmHg.
Turning to “H-EGTFTSDVSSYLEGQAAKEFIAWLVKGR-NH2 [GLP-1(9-36)^amide]”, the “% LV infarct size” value in assay [1] (setting [12]) is listed as 26.1±1.4%.

These data come from patent publication US11033607B2, “Peptides and methods for preventing ischemic tissue injury” (University Health Network, priority 2012, dated 2021).
